Experimental data: patent US9446064B2, “Combination therapy for treating cancer” (Epizyme, Inc., priority 2013, dated 2016)

How the values were obtained:
MV4-11 (MLL-AF4) cells = assay: Combination proliferation study with Compound A2 (Cell Titer Glo, Chou-Talalay combination index); format: cell-based; conditions: 7 day cotreatment
Description: (§1) The acute myelogenous leukemia cell lines MV4-11 (MLL-AF4) and MOLM-13 (MLL-AF9) were obtained from American Type Culture Collection (ATCC; Rockville, Md.) and Deutsche Sammlung von Mikroorganismen and Zellkulturen (DSMZ; Braunschweig, Germany) respectively.
(§2) Initial proliferation studies were performed to determine the IC50 of a given compound in each cell line.
(§3) Compounds were evaluated for synergy in the co-treatment phase by testing the compounds in a concentration range which was bracketed around their IC50 values. […] DMSO concentration was kept at 0.1% v/v.
(§4) Further, strong synergism is achieved when the CI value falls below 0.3.

MOLM-13 (MLL-AF9) cells = assay: as above; format: cell-based; conditions: 7 day cotreatment
Description: as §1, §2, §3, §4

Row | Structure (SMILES) | Combination effect with Compound A2 (combination index) (MV4-11 (MLL-AF4) cells) | Combination effect with Compound A2 (combination index) (MOLM-13 (MLL-AF9) cells)
1 | CC(C)(C)c1cc(NC(=O)Nc2ccc(-c3cn4c(n3)sc3cc(OCCN5CCOCC5)ccc34)cc2)no1 [Quizartinib] | synergy | 
2 | Nc1ccn([C@@H]2O[C@H](CO)[C@@H](O)[C@@H]2O)c(=O)n1 [Ara-C] | Synergy (A combination index less than one indicates synergy) | 
3 | N[C@@H]1C[C@H]1c1ccccc1 (racemic) [Tranylcypromine] | synergy | synergy
4 | COc1cc2c(cc1-c1c(C)noc1C)ncc1[nH]c(=O)n([C@H](C)c3ccccn3)c12 [IBET-151] | Synergy (A combination index less than one indicates synergy) | 
5 | CC1(C)CCC(c2ccc(Cl)cc2)=C(CN2CCN(c3ccc(C(=O)NS(=O)(=O)c4ccc(N[C@H](CCN5CCOCC5)CSc5ccccc5)c(S(=O)(=O)C(F)(F)F)c4)cc3)CC2)C1 [Navitoclax] | synergy | synergy
